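GI50 marks 50% less growth. The concentration for full growth arrest is given as TGI.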
What was measured:
Test in all cases: DTP human tumour cell line panel, 384-well format
A549 NSCLC = system: A549 NSCLC
CCRF-CEM leukemia = system: CCRF-CEM leukemia
HCT-116 colon = system: HCT-116 colon
HCT-15 colon = system: HCT-15 colon
HT29 colon = system: HT29 colon
IGROV1 ovarian = system: IGROV1 ovarian
K-562 leukemia = system: K-562 leukemia
MALME-3M melanoma = system: MALME-3M melanoma
MDA-MB-435 melanoma = system: MDA-MB-435 melanoma
NCI-H460 NSCLC = system: NCI-H460 NSCLC
OVCAR-5 ovarian = system: OVCAR-5 ovarian
SK-MEL-28 melanoma = system: SK-MEL-28 melanoma
SW-620 colon = system: SW-620 colon

COc1ccc2c(Oc3ccc(NC(=O)c4c(C)n(CC(C)(C)O)n(-c5ccccc5)c4=O)nc3)ccnc2c1
GI50 (A549 NSCLC): 16.8 µM
TGI (A549 NSCLC): > 100 µM
GI50 (CCRF-CEM leukemia): 10.3 µM
TGI (CCRF-CEM leukemia): 22 µM
GI50 (HCT-116 colon): 10.5 µM
TGI (HCT-116 colon): 30.2 µM
GI50 (HCT-15 colon): 6.05 µM
TGI (HCT-15 colon): > 100 µM
GI50 (HT29 colon): 39.9 µM
TGI (HT29 colon): > 100 µM
GI50 (IGROV1 ovarian): 9.46 µM
TGI (IGROV1 ovarian): > 100 µM
GI50 (K-562 leukemia): 1.16 µM
TGI (K-562 leukemia): 2.51 µM
GI50 (MALME-3M melanoma): 5.26 µM
TGI (MALME-3M melanoma): 60 µM
GI50 (MDA-MB-435 melanoma): 12.3 µM
TGI (MDA-MB-435 melanoma): 53.7 µM
GI50 (NCI-H460 NSCLC): 14.3 µM
TGI (NCI-H460 NSCLC): > 100 µM
GI50 (OVCAR-5 ovarian): 37.8 µM
TGI (OVCAR-5 ovarian): > 100 µM
GI50 (SK-MEL-28 melanoma): 25.2 µM
TGI (SK-MEL-28 melanoma): 84.8 µM
GI50 (SW-620 colon): 56.2 µM
TGI (SW-620 colon): > 100 µM

Cn1cc(-c2ccc(-c3cncc(Cl)c3N3CCC4(CCNC4=O)CC3)cc2)cn1
GI50 (A549 NSCLC): 24.5 µM
TGI (A549 NSCLC): 98 µM
GI50 (CCRF-CEM leukemia): 8.63 µM
TGI (CCRF-CEM leukemia): 23.9 µM
GI50 (HCT-116 colon): 13.8 µM
TGI (HCT-116 colon): 47.3 µM
GI50 (HCT-15 colon): 14.6 µM
TGI (HCT-15 colon): > 66.4 µM
GI50 (HT29 colon): 9.55 µM
TGI (HT29 colon): > 93.3 µM
GI50 (IGROV1 ovarian): 25.2 µM
TGI (IGROV1 ovarian): > 100 µM
GI50 (K-562 leukemia): 19 µM
TGI (K-562 leukemia): > 100 µM
GI50 (MALME-3M melanoma): 30.3 µM
TGI (MALME-3M melanoma): > 100 µM
GI50 (MDA-MB-435 melanoma): 30.1 µM
TGI (MDA-MB-435 melanoma): > 91.6 µM
GI50 (NCI-H460 NSCLC): 21.1 µM
TGI (NCI-H460 NSCLC): 62.2 µM
GI50 (OVCAR-5 ovarian): > 100 µM
TGI (OVCAR-5 ovarian): > 100 µM
GI50 (SK-MEL-28 melanoma): 20 µM
TGI (SK-MEL-28 melanoma): > 65.3 µM
GI50 (SW-620 colon): 12.3 µM
TGI (SW-620 colon): > 86.5 µM

From PubChem BioAssay (NCI)
